Measurements reported in BindingDB's records for patent US20250313563 (The Broad Institute, 2025).
pIC50: −log10 of the molar value. Values joined by “and” are separate entries in the source; they are usually repeats but may differ in a detail not shown here. Equal entries are not always repeated.

Legend:
[1] = target: Glycogen synthase kinase-3 beta (Homo sapiens, UniProt P49841); assay: TR-FRET Assay
In short: (§1)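 Compound was preincubated 30 min in assay buffer before the kinase reaction, which was quenched with EDTA. Phosphorylation was detected by TR-FRET after adding a solution of 40 nM streptavidin-d2 and 2 nM Tb-labelled anti-pSer641 antibody.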

[2] = target: Glycogen synthase kinase-3 alpha (Homo sapiens, UniProt P49840); assay: TR-FRET Assay
In short: as §1

Chain of Glycogen synthase kinase-3 beta (P49841 whole entry): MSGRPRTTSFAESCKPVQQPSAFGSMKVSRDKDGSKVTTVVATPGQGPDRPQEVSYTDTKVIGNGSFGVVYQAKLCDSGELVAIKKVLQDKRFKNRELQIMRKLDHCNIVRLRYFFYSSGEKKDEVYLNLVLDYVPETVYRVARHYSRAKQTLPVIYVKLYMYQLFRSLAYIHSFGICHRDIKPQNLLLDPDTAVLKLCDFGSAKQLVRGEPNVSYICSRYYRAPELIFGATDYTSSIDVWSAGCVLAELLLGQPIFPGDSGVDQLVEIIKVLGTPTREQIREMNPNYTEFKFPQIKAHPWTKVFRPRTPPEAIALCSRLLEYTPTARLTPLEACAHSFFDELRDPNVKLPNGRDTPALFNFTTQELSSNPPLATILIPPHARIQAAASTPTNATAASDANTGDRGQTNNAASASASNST
Chain of Glycogen synthase kinase-3 alpha (P49840 whole entry): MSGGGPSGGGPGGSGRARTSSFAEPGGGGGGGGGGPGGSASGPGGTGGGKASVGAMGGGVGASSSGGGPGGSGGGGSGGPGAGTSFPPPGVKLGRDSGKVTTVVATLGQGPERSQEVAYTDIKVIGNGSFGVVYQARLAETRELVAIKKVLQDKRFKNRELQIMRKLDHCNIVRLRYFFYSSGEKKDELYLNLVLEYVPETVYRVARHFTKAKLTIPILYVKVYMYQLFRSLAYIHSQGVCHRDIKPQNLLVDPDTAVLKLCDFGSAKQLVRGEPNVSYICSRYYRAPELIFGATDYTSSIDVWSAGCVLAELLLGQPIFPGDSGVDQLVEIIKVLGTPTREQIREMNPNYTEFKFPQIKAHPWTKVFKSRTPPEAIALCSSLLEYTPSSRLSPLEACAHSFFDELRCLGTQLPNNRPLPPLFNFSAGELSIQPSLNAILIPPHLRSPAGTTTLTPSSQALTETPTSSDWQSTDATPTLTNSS

| SMILES | pIC50 [1] | pIC50 [2] |
| --- | --- | --- |
| CCC1(c2cccc(N(C)C(=O)C3CCN(C)CC3)c2)C2=CN=NC2NC2=C1C(=O)CC(C)(C)C2 (stereo unspecified) [US20250313563, Compound 912167] | 5.30 to 6.00 | 6.00 to 7.00 |
| CC[C@]1(c2cccc(C(F)(F)F)c2)C2=CN=NC2NC2=C1C(=O)N(C(C)C)CC2 (stereo partly specified) [US20250313563, Compound 857336] | 6.00 to 7.00 | > 7.00 |
| C[C@H]1CC(=O)C2=C(C1)NC1=C(CN=N1)[C@]2(C)c1ccccc1 [US20250313563, Compound 789332] | 6.00 to 7.00 | 6.00 to 7.00 |
| CC1(C)CC(=O)C2=C(C1)NC1=C(CN=N1)[C@@]21CCO[C@H](C(C)(C)C)C1 [US20250313563, Compound 912107] | < 5.30 | < 5.30 |
| CC1(C)CC(=O)C2=C(C1)NC1=C(CN=N1)C21CN(S(=O)(=O)c2ccccc2F)C1 [US20250313563, Compound 913263] | 6.00 to 7.00 | 6.00 to 7.00 |
| CC[C@@]1(c2cccc(-c3ccncc3C)c2)C2=C(CC(C)(C)NC2=O)NC2N=NC(C)=C21 (stereo partly specified) [US20250313563, Compound 947414] | > 7.00 and 5.30 to 6.00 | > 7.00 and 6.00 to 7.00 |
| CCn1nc(C)c(S(=O)(=O)N2CCC3(CC2)C2=C(N=NC2)NC2=C3C(=O)CC(C)(C)C2)c1C [US20250313563, Compound 945679] | 5.30 to 6.00 | 6.00 to 7.00 |
| CCC1(c2cccc(S(=O)(=O)C3CC3)c2)C2=CN=NC2NC2=C1C(=O)CC(C)(C)C2 (stereo unspecified) [US20250313563, Compound 909204] | > 7.00 and 6.00 to 7.00 | > 7.00 |
| CC[C@@]1(c2cccc(-c3cnn(-c4ccccc4)c3F)c2)C2=CN=NC2NC2=C1C(=O)NC(C)(C)C2 (stereo partly specified) [US20250313563, Compound 950821] | 5.30 to 6.00 | 6.00 to 7.00 |
| CCC1(c2cccc(Cl)c2)C2=C(CC(C)(C)CC2=O)NC2N=NC(C(F)(F)F)=C21 (stereo unspecified) [US20250313563, Compound 789566] | > 7.00 | > 7.00 |
| CC[C@@]1(c2cccc(-c3cc(C)nnc3C)c2)C2=C(CC(C)(C)NC2=O)NC2N=NC(C)=C21 (stereo partly specified) [US20250313563, Compound 949333] | 6.00 to 7.00 | > 7.00 |
| CC[C@]1(c2cccc(-c3ccnc(OC)c3)c2)C2=CN=NC2NC2=C1C(=O)CC(C)(C)C2 (stereo partly specified) [US20250313563, Compound 911988] | 6.00 to 7.00 and < 5.30 | > 7.00 and 6.00 to 7.00 |
| C[C@@H]1C[C@]2(CCO1)C1=C(N=NC1)NC1=C2C(=O)CC(C)(C)C1 [US20250313563, Compound 924308] | 6.00 to 7.00 | 6.00 to 7.00 |
| CN1CCCC2(CC1)C1=C(N=NC1)NC1=C2C(=O)CC(C)(C)C1 (stereo unspecified) [US20250313563, Compound 893313] | < 5.30 | < 5.30 |
| CC[C@]1(c2cccc(-c3cnn(-c4ccccn4)c3)c2)C2=CN=NC2NC2=C1C(=O)NC(C)(C)C2 (stereo partly specified) [US20250313563, Compound 949264] | < 5.30 | < 5.30 |
| CC[C@@]1(c2cccc(C(F)(F)F)c2)C2=C(N=NC2)NC2=C1C(=O)CC2 [US20250313563, Compound 951566] | < 5.30 | 5.30 to 6.00 |
| CCC1(c2cccc(C(F)(F)F)c2)C2=CN=NC2NC2=C1C(=O)N(c1ccsc1)CC2 (stereo unspecified) [US20250313563, Compound 950776] | 6.00 to 7.00 | > 7.00 |
| CC1(C)CC(=O)C2=C(C1)NC1=C(CN=N1)[C@]21C[C@H](OCc2ccccc2)C1 [US20250313563, Compound 909210] | 6.00 to 7.00 | 6.00 to 7.00 |
| CC1(C)CC(=O)C2=C(C1)NC1N=NC=C1[C@@]21CCc2c(F)cccc21 (stereo partly specified) [US20250313563, Compound 806632] | < 5.30 | < 5.78 |
| CCC1(c2ccccc2)C2=C(N=NC2)NC2=C1C(=O)CC1(CC1)C2 (stereo unspecified) [US20250313563, Compound 789330] | 5.30 to 6.00 | 6.00 to 7.00 |
| CC1(C)CC(=O)C2=C(C1)NC1=C(CN=N1)[C@]21CCC[C@@H](C#N)C1 [US20250313563, Compound 946080] | 5.30 to 6.00 | 5.30 to 6.00 |
| CC[C@]1(c2cccc(-c3cnn(C)c3)c2)C2=C(CC(C)(C)NC2=O)NC2N=NC(F)=C21 (stereo partly specified) [US20250313563, Compound 949002] | < 5.30 | 5.30 to 6.00 |
| CC1(C)CC(=O)C2=C(C1)NC1=C(CN=N1)C21CCN(S(=O)(=O)c2ccc(C(F)(F)F)cn2)CC1 [US20250313563, Compound 947902] | > 7.00 | > 7.00 |
| CC1(C)CC(=O)C2=C(C1)NC1N=NC(CCC(F)(F)F)=C1C21CCc2c(F)cccc21 (stereo unspecified) [US20250313563, Compound 841868] | 6.00 to 7.00 | 6.00 to 7.00 |
| CC[C@@]1(c2cccc(N3CCOCC3)c2)C2=C(CC(C)(C)CC2=O)NC2N=NC(C(F)(F)F)=C21 (stereo partly specified) [US20250313563, Compound 816886] | 5.30 to 6.00 | 5.30 to 6.00 |
| CC[C@@]1(c2cccc(C(F)(F)F)c2)C2=CN=NC2NC2=C1C(=O)N(c1ccc(OC)cc1)CC2 (stereo partly specified) [US20250313563, Compound 948227] | < 5.30 | 5.30 to 6.00 |
| CC1(C)CC(=O)C2=C(C1)NC1=C(CN=N1)C21CN(S(=O)(=O)C2CCCC2)C1 [US20250313563, Compound 917139] | > 7.00 and 6.00 to 7.00 | > 7.00 and 6.00 to 7.00 |

| SMILES | pIC50 [1] | pIC50 [2] |
| --- | --- | --- |
| C[C@@H]1C[C@@H]2C[C@@]3(C[C@@H]2C1)C1=CN=NC1NC1=C3C(=O)CC(C)(C)C1 (stereo partly specified) [US20250313563, Compound 943898] | > 7.00 | > 7.00 |
| CC[C@]1(c2ccc(OC(C)C)cc2)C2=C(CC(C)(C)CC2=O)NC2N=NC(C(F)(F)F)=C21 (stereo partly specified) [US20250313563, Compound 947868] | > 7.00 | > 7.00 |
| CC[C@@]1(c2cccc(-c3ccnc(C)c3)c2)C2=C(CC(C)(C)NC2=O)NC2N=NC(F)=C21 (stereo partly specified) [US20250313563, Compound 949012] | 6.00 to 7.00 | > 7.00 |
| CC[C@@]1(c2cccc(N3CCCC[C@H]3C)c2)C2=CN=NC2NC2=C1C(=O)CC(C)(C)C2 (stereo partly specified) [US20250313563, Compound 917210] | < 5.30 | < 5.30 |
| CC[C@@]1(c2cccc(N(C)c3cccc(C)n3)c2)C2=CN=NC2NC2=C1C(=O)CC(C)(C)C2 (stereo partly specified) [US20250313563, Compound 932656] | < 5.30 | < 5.30 |
| Cc1cc([C@H]2CC[C@@]3(CC2)C2=C(N=NC2)NC2=C3C(=O)CC(C)(C)C2)ccn1 [US20250313563, Compound 948416] | 6.00 to 7.00 | > 7.00 |
| CC[C@@]1(c2cccc(C(F)(F)F)c2)C2=CN=NC2NC2=C1C(=O)N(c1cnn(C)c1C)CC2 (stereo partly specified) [US20250313563, Compound 952257] | 6.00 to 7.00 | > 7.00 |
| CC[C@@]1(c2ccccc2)C2=CN=NC2NC2=C1C(=O)CC(C)(C)[C@H]2F (stereo partly specified) [US20250313563, Compound 957200] | 6.00 to 7.00 and < 5.30 | 6.00 to 7.00 and < 5.30 |
| CCC1(c2cccc(N3CCCCC3)c2)C2=C(CC(C)(C)NC2=O)NC2N=NC(C)=C21 (stereo unspecified) [US20250313563, Compound 947674] | 6.00 to 7.00 | > 7.00 |
| CC[C@]1(c2cccc(N(C)c3ncccn3)c2)C2=C(CC(C)(C)NC2=O)NC2N=NC(C(F)F)=C21 (stereo partly specified) [US20250313563, Compound 951736] | 6.00 to 7.00 | > 7.00 |
| CC[C@]1(c2cccc(-c3ccnc4cc(Cl)c(C)cc34)c2)C2=CN=NC2NC2=C1C(=O)NC(C)(C)C2 (stereo partly specified) [US20250313563, Compound 948645] | < 5.30 | 6.00 to 7.00 |
| CC[C@]1(c2cccc(N(C)c3ccccn3)c2)C2=CN=NC2NC2=C1C(=O)CC(C)(C)C2 (stereo partly specified) [US20250313563, Compound 875608] | < 5.30 | 5.30 to 6.00 |
| CC[C@]1(c2cccc(OC(C)C)c2)C2=CN=NC2NC2=C1C(=O)CC(C)(C)C2 (stereo partly specified) [US20250313563, Compound 811564] | > 7.00 | > 7.00 |
| CC[C@@]1(c2cccc(N(C)c3ncccn3)c2)C2=CN=NC2NC2=C1C(=O)NC(C)(C)C2 (stereo partly specified) [US20250313563, Compound 949179] | < 5.30 | 6.00 to 7.00 |
| CCC1(c2cccc(N(C)C(=O)CN3CCCC3)c2)C2=CN=NC2NC2=C1C(=O)CC(C)(C)C2 (stereo unspecified) [US20250313563, Compound 913125] | 6.00 to 7.00 | > 7.00 |
| COc1ccc(S(=O)(=O)N2CCC3(CC2)C2=C(N=NC2)NC2=C3C(=O)CC(C)(C)C2)cc1 [US20250313563, Compound 901469] | 6.00 to 7.00 | 6.00 to 7.00 |
| CC[C@@]1(c2cccc(Oc3ncccn3)c2)C2=CN=NC2NC2=C1C(=O)NC(C)(C)C2 (stereo partly specified) [US20250313563, Compound 949330] | 6.00 to 7.00 | > 7.00 |
| CC[C@]1(c2cccc(-c3c(C)nn(C)c3C)c2)C2=C(CC(C)(C)CC2=O)NC2N=NC(C)=C21 (stereo partly specified) [US20250313563, Compound 913043] | > 7.00 and 6.00 to 7.00 | > 7.00 |
| CC(=O)N1CC2(C1)C[C@@]1(CO2)C2=C(N=NC2)NC2=C1C(=O)CC(C)(C)C2 [US20250313563, Compound 926861] | > 7.00 | > 7.00 |
| CC1(C)CC(=O)C2=C(C1)NC1=C(CN=N1)C21CCCc2ccccc21 (stereo unspecified) [US20250313563, Compound 913219] | 6.00 to 7.00 | > 7.00 |
| CCC1(c2cccc(-c3ccnc(C)c3OC)c2)C2=CN=NC2NC2=C1C(=O)NC(C)(C)C2 (stereo unspecified) [US20250313563, Compound 948794] | 6.00 to 7.00 | > 7.00 |
| CC[C@]1(c2cccc(-c3cc(OC)nc4ccccc34)c2)C2=CN=NC2NC2=C1C(=O)NC(C)(C)C2 (stereo partly specified) [US20250313563, Compound 948647] | < 5.30 | < 5.30 |
| CC[C@]1(c2cccc(C3CCCC3)c2)C2=CN=NC2NC2=C1C(=O)CC(C)(C)C2 (stereo partly specified) [US20250313563, Compound 949397] | > 7.00 and 5.30 to 6.00 | > 7.00 and 6.00 to 7.00 |
| CC[C@]1(c2cccc(N(C)c3cccc(OC)n3)c2)C2=CN=NC2NC2=C1C(=O)CC(C)(C)C2 (stereo partly specified) [US20250313563, Compound 932646] | < 5.30 | < 5.30 |
| CC[C@@]1(c2cccc(-c3cnn(C)c3C)c2)C2=C(CC(C)(C)NC2=O)NC2N=NC(C(F)(F)F)=C21 (stereo partly specified) [US20250313563, Compound 947819] | > 7.00 | > 7.00 |
| CC[C@@]1(c2cccc(-c3ccnc4ccncc34)c2)C2=CN=NC2NC2=C1C(=O)NC(C)(C)C2 (stereo partly specified) [US20250313563, Compound 952910] | 6.00 to 7.00 and < 5.30 | > 7.00 and 6.00 to 7.00 |
